These results are taken from patent US11622991B2, “Protocol for treatment of lupus nephritis” (Aurinia Pharmaceuticals Inc., priority 2017, dated 2023).

Format in all cases: in vivo, human
Assay [1] has as its system lupus nephritis. Put plainly: Probability of attaining CR by proteinuria depending on UPCR reduction of 25% at 8 weeks (Tables 9a, 9b).
Assay [2] concerns lupus nephritis. Put plainly: Predictability of week 48 partial remission from early C3/C4 normalization (Table 12). An excerpt:
PR is defined as at least 50% reduction in proteinuria (i.e. UPCR).
Sensitivity is defined as the probability that a subject showing PR at 48 weeks would have shown a favorable result with regard to the marker at the designated early time point. In the tables below, this is the ratio of the number of subjects with favorable marker results (early drop or normalization) to the total subjects with 48 week PR.
Specificity is defined as the probability that a subject not showing PR at 48 weeks would have shown an unfavorable result with regard to the marker at the designated early time point. In the tables below, this is the ratio of the number of subjects with unfavorable marker results (no early drop or no normalization) to the total subjects with no 48 week PR.
Positive predictive value is defined as the probability that a subject showing a favorable result with respect to the marker at an earlier time point would show PR at 48 weeks. In the tables below, this is the ratio of the number of subjects with favorable marker results who have 48 week PR to those with favorable marker results (early reduction or yes column).
Negative predictive value is defined as the probability that a subject showing an unfavorable result with respect to the marker at an earlier time point would not show PR at 48 weeks. In the tables below, this is the ratio of the number of subjects with unfavorable marker results who have no PR at 48 weeks to the total subjects with unfavorable marker results (no early reduction or no column).
Another criterion for effectiveness is normalization of C3 and/or C4 concentration in blood. The normal concentration of C3 is 90 mg/dl or greater and for C4 16 mg/dl or greater.

Assay [3] has as its system lupus nephritis. Put plainly: Low dosage protocol (15.8 mg or 7.9 mg BID).

For `C=C/C=C/C[C@@H](C)[C@@H](O)[C@H]1C(=O)N[C@@H](CC)C(=O)N(C)CC(=O)N(C)[C@@H](CC(C)C)C(=O)N[C@@H](C(C)C)C(=O)N(C)[C@@H](CC(C)C)C(=O)N[C@@H](C)C(=O)N[C@H](C)C(=O)N(C)[C@@H](CC(C)C)C(=O)N(C)[C@@H](CC(C)C)C(=O)N(C)[C@@H](C(C)C)C(=O)N1C` [voclosporin], the figures for the “# of patients without UPCR reduction of ≥25% at 8 weeks” value in the assay with lupus nephritis [1] (High Dose (39.5 mg BID)) and with lupus nephritis [1] (Low Dose (23.7 mg BID)) were 12 and 16, respectively. In addition, in the assay with lupus nephritis [1] (Low Dose (23.7 mg BID)), the “# of CRs by Proteinuria at 24 weeks” value turned out to be 29. In the assay with lupus nephritis [1] (Low Dose (23.7 mg BID)), the “# of patients with UPCR reduction of ≥25% at 8 weeks” value stood at 64. The “Normalization Yes” value in the assay with lupus nephritis [2] (week 12, 23.7 mg BID) is recorded as 26; in the assay on lupus nephritis [2] (week 24, 23.7 mg BID), 27; in the assay with lupus nephritis [2] (week 24, 39.5 mg BID), 31; in the assay with lupus nephritis [2] (week 48, 39.5 mg BID) it was 32. In addition, the “No Week 48 Partial Remission No Normalization” value in the assay on lupus nephritis [2] (week 12, 39.5 mg BID) is recorded as 10; in the assay on lupus nephritis [2] (week 24, 23.7 mg BID), 10; in the assay with lupus nephritis [2] (week 48, 23.7 mg BID) it was 8; with lupus nephritis [2] (week 48, 39.5 mg BID) it was 11. Besides, the “No Week 48 Partial Remission Normalization” value with lupus nephritis [2] (week 12, 39.5 mg BID) was 7; in the assay with lupus nephritis [2] (week 24, 23.7 mg BID), 4; in the assay on lupus nephritis [2] (week 48, 23.7 mg BID), 2. Besides, in the assay on lupus nephritis [2] (week 12, 39.5 mg BID), the “Week 48 Partial Remission No Normalization” value is on record as 33. The “Week 48 Partial Remission Normalization” value in the assay on lupus nephritis [2] (week 12, 39.5 mg BID) is recorded as 29. Moreover, the results for the “remission at reduced dosage” value in the assay on lupus nephritis [3] (dosage lowered to 7.9 mg BID quite early in the treatment) and in the assay on lupus nephritis [3] (dosage reduced almost immediately to 15.8 mg BID) were “Substantial numbers of subjects showed complete or partial remission” and “a substantial portion of subjects showed substantial remission”, respectively.
